# According to patent EP0581166A1, “Benzimidazoles, process for their preparation and their use as angiotensin-II antagonists” (Dr. Karl Thomae GmbH, priority 1992, dated 1994):
# Target: T1, Angiotensin II-Rezeptor (Rattus norvegicus, UniProt P25095)
# T1 construct: Das Gewebe (Rattenlunge) wird in Tris-Puffer; from tissue; host or cells: rat lung homogenate (membrane pellet, 20,000 x g)
# T1 sequence (P25095 1-359): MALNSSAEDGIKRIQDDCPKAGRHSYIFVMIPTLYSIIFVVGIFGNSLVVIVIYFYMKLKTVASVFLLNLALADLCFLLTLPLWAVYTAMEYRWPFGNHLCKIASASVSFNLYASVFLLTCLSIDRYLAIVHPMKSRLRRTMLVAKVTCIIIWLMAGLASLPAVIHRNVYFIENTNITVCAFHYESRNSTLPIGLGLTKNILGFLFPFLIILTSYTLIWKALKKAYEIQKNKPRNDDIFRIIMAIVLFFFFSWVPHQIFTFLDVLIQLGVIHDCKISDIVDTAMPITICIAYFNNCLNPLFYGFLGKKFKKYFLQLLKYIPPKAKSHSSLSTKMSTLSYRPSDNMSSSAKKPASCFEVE
# Test: Angiotensin II receptor binding: displacement of [125I]-angiotensin II in rat lung homogenate
# Design: species or system Ratte
# Details: rat lung (Rattenlunge) homogenate, 50 pM [125I]-Angiotensin II, 60 min at 37°C, IC50 from dose-response curve; read-out: IC₅₀
# Procedure: Methodenbeschreibung Angiotensin II-Rezeptorbindung
# Das Gewebe (Rattenlunge) wird in Tris-Puffer (50 mMol Tris, 150 mMol NaCl, 5 mMol EDTA, pH 7.40) homogenisiert und zweimal je 20 Min. bei 20.000 x g zentrifugiert. Das endgültige Pellet wird in Inkubations-Puffer (50 mMol Tris, 5 mMol MgCl₂, 0,2 % BSA, pH 7,40) 1:75, bezogen auf das Feuchtgewicht des Gewebes, resuspendiert. Je 0,1 ml Homogenat wird für 60 Min. bei 37°C mit 50 pM [125^I]-Angiotensin II (NEN, Dreieich, FRG) und steigenden Konzentrationen der Testsubstanz in einem Gesamtvolumen von 0,25 ml inkubiert. Die Inkubation wird durch rasche Filtration durch Glasfiber-Filtermatten beendet. Die Filter werden je 4 ml eiskaltem Puffer (25 mMol Tris, 2.5 mMol MgCl₂, 0,1 % BSA, pH 7,40) gewaschen. Die gebundene Radioaktivität wird in einem Gamma-Counter ermittelt. Aus der Dosis-Wirkungskurve wird der entsprechende IC₅₀-Wert ermittelt.
row,SMILES,IC50 [nM]
1,"CCc1nc2c(C)cc(-c3nc4cc(F)ccc4n3C)cc2n1Cc1ccc(-c2ccccc2C(=O)O)cc1 [Substanz A, 4'-[(2-Ethyl-4-methyl-6-(1-methyl-5-fluor-benzimidazol-2-yl)-benzimidazol-1-yl)-methyl]-biphenyl-2-carbonsäure]",7.4
2,"CCCc1nc2c(C)cc(N3CCCCS3(=O)=O)cc2n1Cc1ccc(-c2ccccc2C(=O)O)cc1 [Substanz B, 4'-[(2-n-Propyl-4-methyl-6-(butansultam-1-yl)-benzimidazol-1-yl)-methyl]-biphenyl-2-carbonsäure]",0.9
3,"Cc1cc(-c2cn3ccccc3n2)cc2c1nc(C1CC1)n2Cc1ccc(-c2ccccc2C(=O)O)cc1 [Substanz C, 4'-[(2-Cyclopropyl-4-methyl-6-(imidazo[1,2-a]pyridin-2-yl)-benzimidazol-1-yl)-methyl]-biphenyl-2-carbonsäure]",1.7
4,"Cc1cc(-c2cn3c(n2)CCCC3)cc2c1nc(C1CC1)n2Cc1ccc(-c2ccccc2C(=O)O)cc1 [Substanz D, 4'-[(2-Cyclopropyl-4-methyl-6-(5,6,7,8-tetrahydro-imidazo[1,2-a]pyridin-2-yl)-benzimidazol-1-yl)-methyl]-biphenyl-2-carbonsäure]",1.3
5,"CCOc1nc2c(C)cc(-c3nc4ccccc4n3C)cc2n1Cc1ccc(-c2ccccc2-c2nnn[nH]2)cc1 [Substanz E, 4'-[(2-Ethoxy-4-methyl-6-(1-methyl-benzimidazol-2-yl)-benzimidazol-1-yl)-methyl]-2-(1H-tetrazol-5-yl)-biphenyl]",3.3
